Reference: patent US12053470B2, “Pharmaceutical combination comprising an ALK inhibitor and a SHP2 inhibitor” (Novartis AG, priority 2017, dated 2024)

What was measured:
[1] = system: MGH049, MGH045-2A and MGH073-2B cells; assay: Cell colony formation assay (crystal violet, FIG. 1); type: cell-based, human; details: Compound No. 1 5 μM, 14 days
From the text: FIG. 1. […]. For each cell line, all dishes were fixed, stained and photographed at the same time.
The MGH049, MGH045-2A and MGH073-2B cell lines were established at Massachusetts General Hospital. MGH049 is described in Friboulet L, et al. Cancer Discov. 2014 June; 4(6):662-73. MGH045 is described in Friboulet L, et al. Cancer Discov. 2014 June; 4(6):662-73). MGH045-1A, is described in Science, 2014, December 19; 346(6216):1480-1).
All human lung cancer samples were obtained from patients with informed consent, and all procedures were carried out under an Institutional Review Board (IRB)-approved protocol. The cell lines were cultured in DMEM (ATCC) supplemented with 10% FBS, or in RPMI (ATCC) supplemented with 15% FBS.
Cell colony formation assays were used to assess cell viability and proliferation after compound treatments. Cells were plated into 6-well tissue culture plates (6×10^5 cells/well) in a total volume of 2 mL. After 24 hours, compounds were added to the plates. At the end points of the assays, cells were fixed, stained with crystal violet and photographed.
[…]. […] […].

[2] = system: Ceritinib resistant MGH049 cells; assay: Cell colony formation assay with ceritinib resistant MGH049 cells;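 on all read-outs here: tested compounds are SHP2 inhibitors given alone, colonies fixed and crystal violet stained, DMSO reference taken as the mean of six readings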; type: cell-based, human; details: 7 days; for activity at 3 µM: Homo sapiens, 168 h, compound of Table 1 (3 μM) alone, normalized to DMSO without compound = 100, read-out: Normalized Crystal Violet abs. (590 nm) DMSO
SHP2 = SHP2 (Homo sapiens (Human), UniProt Q06124); assay: SHP2 allosteric inhibition assay (DiFMUP prompt fluorescence); type: biochemical

SMILES | IC50 (SHP2) | effect on cell growth as a single agent [1] | effect on cell growth as a single agent ([2]; 3 μM, ceritinib-resistant cells) | activity at 3 µM [2]
CC1(N)CCN(c2cnc(-c3cccc(Cl)c3Cl)c(N)n2)CC1 [Compound No. 1, 6-(4-amino-4-methylpiperidin-1-yl)-3-(2,3-dichlorophenyl)pyrazin-2-amine] |  | no effect on cell growth | no effect on cell growth | 117%
Nc1nccc(Sc2cnc(N3CCC4(CC3)COC[C@H]4N)cn2)c1Cl [compound 24, (S)-8-(5-((2-amino-3-chloropyridin-4-yl)thio)pyrazin-2-yl)-2-oxa-8-azaspiro[4.5]decan-4-amine] | 6 nM |  |  | 43.5%
Cn1c(N2CCC3(CCC[C@H]3N)CC2)nc2n[nH]c(-c3cccc(Cl)c3Cl)c2c1=O [compound 37, (R)-6-(1-amino-8-azaspiro[4.5]decan-8-yl)-3-(2,3-dichlorophenyl)-5-methyl-2,5-dihydro-4H-pyrazolo[3,4-d]pyrimidin-4-one] | 26 nM |  |  | 45%

The next lines start with results.

IC50 (SHP2) | SMILES | effect on cell growth as a single agent [1] | effect on cell growth as a single agent ([2]; 3 μM, ceritinib-resistant cells) | activity at 3 µM [2]
4 nM | CC1(N)CCN(c2cnc(Sc3cccc(NC(=O)C4=C(O)CN(c5ccccc5)C4=O)c3Cl)c(N)n2)CC1 [compound 46, N-(3-((3-amino-5-(4-amino-4-methylpiperidin-1-yl)pyrazin-2-yl)thio)-2-chlorophenyl)-4-hydroxy-2-oxo-1-phenyl-2,5-dihydro-1H-pyrrole-3-carboxamide] |  |  | 70.9%
6 nM | Nc1nc(N2CCC(N)(CF)CC2)cnc1Sc1cccc(NC(=O)c2c(O)nc3n(c2=O)CCCC3)c1Cl [compound 51, N-(3-((3-amino-5-(4-amino-4-(fluoromethyl)piperidin-1-yl)pyrazin-2-yl)thio)-2-chlorophenyl)-2-hydroxy-4-oxo-6,7,8,9-tetrahydro-4H-pyrido[1,2-a]pyrimidine-3-carboxamide] |  |  | 94%
5 nM | Nc1nc(N2CCC(N)(CF)CC2)cnc1Sc1cccc(NC(=O)c2c(O)nc3ccccn3c2=O)c1Cl [compound 52, N-(3-((3-amino-5-(4-amino-4-(fluoromethyl)piperidin-1-yl)pyrazin-2-yl)thio)-2-chlorophenyl)-2-hydroxy-4-oxo-4H-pyrido[1,2-a]pyrimidine-3-carboxamide] |  |  | 67.9%
